US5981774A, “Compounds for the treatment of hepatoma” (National Science Council, priority 1993, dated 1999)
Converted amounts (≈) assume the structure as drawn.

Columns and labels:
KB cells [1] = conditions: KB cells in vitro; Lin et al., 1991, 1992; cited from earlier work
[2] = test system: human hepatoma PLC/PRF/5 cells; conditions: human hepatoma PLC/PRF/5 cells in vitro; Lin et al., 1991, 1992; cited from earlier work
leukemia cells = conditions: Habib et al., 1987; cited from earlier work
[3] = test system: human hepatoma PLC/PRF/5 cells; assay: microassay for anticellular effect (cytotoxicity, ED50), PLC/PRF/5 cells; format: cell-based; conditions: for IC50: Homo sapiens; for IC50 / ED50 (PLC/PRF/5): PLC/PRF/5 cells, % viable cells on day 4, n = 8, significant activity requires ED50 < 4.0 ug/ml; for inhibitory activity in words (PLC/PRF/5): human hepatoma PLC/PRF/5 cells in vitro
Protocol: (§1) The name PLC/PRF/5 designates human primary liver cancer cells; the symbol KB designates epidermoid carcinoma cells.
(§2) PLC/PRF/5 cells were isolated from human hepatoma and are known to produce HBs Ag continuously in culture fluids. The cells were grown as continuous cultures in a growth medium consisting of Dulbecco's modified Eagle medium (DMEM, GIBCO, Grand Island, N.Y.), 10% fetal bovin serum (FBS, GIBCO), 100 IU/ml penicillin, 100 µg/ml streptomycin and 2 mM L-glutamine. The KB cells were maintained on DMEM containing 10% FBS L-glutamine and antibiotics. For the microassay, the growth medium was supplemented further with 10 mM Hepes buffer, pH 7.3.
(§3) The ED50 values were calculated from a semilog plot of the drug concentration vs. the percentage of viable cells on day 4.

KB cells [4] = assay: microassay for anticellular effect (cytotoxicity, ED50), KB cells; format: cell-based, human; conditions: for IC50: Homo sapiens, 96 h; for inhibitory activity in words (KB): KB cells in vitro
Protocol: as §1, §2, §3

[5] = test system: epidermis carcinoma KB cells; assay: Inhibition of Macromolecular Synthesis ([3H]-thymidine, -uridine or -methionine incorporation), KB cells; format: cell-based, human; conditions: for effects on DNA, RNA and protein synthesis (KB): FIGS. 2, 4, 6
Protocol: (§4) The activity of compounds 16, 17 and 21 on macromolecular synthesis were determined by measuring the isotopic incorporation of [^3 H]-thymidine, -uridine and -methionine in the human PLC/PRF/5 and KB cells respectively.
(§5) PLC/PRF/5 cells were obtained from human hepatoma and are known to produce HBs Ag continuously in culture fluids. Human hepatoma PLC/PRF/5 and epidermis carcinoma KB cells were maintained in Dulbeceo's modified Eagle medium (DMEM, Gibco BRL Grand Island, N.Y., U.S.A.), containing 10% fetal bovine serum (FBS, Gibco BRL), 2 mM L-glutamine, 100 units mL-1 penicillin, 100 μg mL-l streptomycin. The 212 cells were maintained in Minimum essential alpha medium (MEM, Gibco BRL), containing 10% calf serum (Gibco BRL). For microassay, the growth medium was supplemented with 10 mM HEPES buffer, pH 7.3 and incubated at 37° C. in a CO2 incubation.
(§6) Inhibition of Macromolecular Synthesis. The synthesis of macromolecules were measured by the incorporation of ^3 H-thymidine, -uridine or -methionine (New England) Nuclear, Boston, Mass., USA) into the tumor cells. Briefly, the tumor cell (1 1.5×10^4 /100 μl/well) maintained in growth medium with or without drugs in microplates were incubated at 37° C. The cells after pulsed labeling with [^3 H]-thymidine, -uridine, or -methionine for 18 hrs at day 4 post-treatment were harvested and loaded onto glass filter paper (Skatron. Va., USA). The incorporation activities of the cells were measured by the liquid scintillation counter (LS-5000 TA, Beckman Calif., USA). All treatments were conducted in quadruplicate and the mean values were used for analysis. Each experiment was repeated at least 3 times. The data shown are mean counts per minute (CPM)±SEM. Percent inhibition of [^3 H]-thymidine, -uridine, or -methionine incorporation was calculated as follows: [formula]

human PLC/PRF/5 cells = assay: Inhibition of Macromolecular Synthesis ([3H]-thymidine, -uridine or -methionine incorporation), PLC/PRF/5 cells; format: cell-based; conditions: for dependence of inhibition of macromolecular biosynthesis on concentration and time (PLC/PRF/5): PLC/PRF/5 cells; for effects on DNA, RNA and protein synthesis (PLC/PRF/5): human PLC/PRF/5 cells, FIGS. 1, 3, 5; for suppression of cellular DNA, RNA and protein synthesis: overall conclusion, cell line not stated
Protocol: as §4, §5, §6

[6] = KB cells, % viable cells on day 4, n = 8, significant activity requires ED50 < 4.0 ug/ml

dihydroisocycloartomunin
cytotoxic effects (KB), isolated natural compounds (KB cells [1]): exhibited cytotoxic effects
cytotoxic effects (PLC/PRF/5), isolated natural compounds [2]: exhibited cytotoxic effects

CC(C)=CC1Oc2cc(O)ccc2-c2oc3c4c(cc(O)c3c(=O)c21)OC(C)(C)C=C4 (stereo not shown) [cyclomorusin]
cytotoxic effects (KB), isolated natural compounds (KB cells [1]): exhibited cytotoxic effects
cytotoxic effects (PLC/PRF/5), isolated natural compounds [2]: exhibited cytotoxic effects

C=C(C)C1Cc2c(oc3c4c(cc(O)c3c2=O)OC(C)(C)C=C4)-c2c(O)cc(OC)c(O)c21 (stereo not shown) [artomunoxanthone]
cytotoxic effects (KB), isolated natural compounds (KB cells [1]): exhibited cytotoxic effects
cytotoxic effects (PLC/PRF/5), isolated natural compounds [2]: exhibited cytotoxic effects

3',4'-deoxy-psorospermin
cytotoxic effects against leukemia cells (leukemia cells): strong cytotoxic effects

COc1cc2c(c3oc4c(O)cccc4c(=O)c13)C[C@H]([C@@]1(C)CO1)O2 [Psorospermin]
cytotoxic effects against leukemia cells (leukemia cells): strong cytotoxic effects

3',4'-deoxy-4'-chloropsorspermin-3'-ol
cytotoxic effects against leukemia cells (leukemia cells): strong cytotoxic effects

cyclo-mulberrin
cytotoxic effects (KB), isolated natural compounds (KB cells [1]): exhibited cytotoxic effects
cytotoxic effects (PLC/PRF/5), isolated natural compounds [2]: exhibited cytotoxic effects

3',4'=deoxypsorospermin-3',4'-diol
cytotoxic effects against leukemia cells (leukemia cells): strong cytotoxic effects

O=c1c2ccccc2oc2cc(OCC3CO3)ccc12 (stereo not shown) [Compound 14, 3-(2,3-Epoxypropoxy)xanthone]
IC50 ([3]; 96 h): 1.43 µg/mL (≈ 5.33 µM)
inhibitory activity in words (PLC/PRF/5) [3]: enhanced very markedly the inhibitory effects
IC50 (KB cells [4]; [6]): 0.85 µg/mL (≈ 3.17 µM)

CC(C)=CC1Oc2cc(O)ccc2-c2oc3cc(O)c(/C=C/C(C)C)c(O)c3c(=O)c21 (stereo not shown) [cyclocommunin]
cytotoxic effects (KB), isolated natural compounds (KB cells [1]): exhibited cytotoxic effects
cytotoxic effects (PLC/PRF/5), isolated natural compounds [2]: exhibited cytotoxic effects

O=c1c2ccc(OCC3CO3)cc2oc2ccc(OCC3CO3)cc12 (stereo not shown) [Compound 16, 2,6-di(2,3-epoxypropoxy) xanthone]
dependence of inhibition of macromolecular biosynthesis on concentration and time (KB) [5]: only correlated with the concentration of drug treatment
effects on DNA, RNA and protein synthesis (KB) [5]: not apparent
IC50 ([3]; 96 h): 0.23 µg/mL (≈ 0.676 µM)
dependence of inhibition of macromolecular biosynthesis on concentration and time (PLC/PRF/5) (human PLC/PRF/5 cells): correlated with the concentration and the period of drug treatment
effects on DNA, RNA and protein synthesis (PLC/PRF/5) (human PLC/PRF/5 cells): effects are significant at low concentration
suppression of cellular DNA, RNA and protein synthesis (human PLC/PRF/5 cells): suppress cellular DNA, RNA and protein synthesis
IC50 (KB cells [4]; [6]): 0.0043 µg/mL (≈ 0.0126 µM)
inhibitory activity in words (KB) (KB cells [4]): more potent inhibitory activity
ED50 potency relative to cisplatin (KB) (KB cells [4]; KB cells, versus cisplatin): over 40 times

CC(C)=CC1Oc2cc(O)ccc2-c2oc3cc(O)cc(O)c3c(=O)c21 (stereo not shown) [cyclocommunol]
cytotoxic effects (KB), isolated natural compounds (KB cells [1]): exhibited cytotoxic effects
cytotoxic effects (PLC/PRF/5), isolated natural compounds [2]: exhibited cytotoxic effects

dihydrocyclo-artomunin
cytotoxic effects (KB), isolated natural compounds (KB cells [1]): exhibited cytotoxic effects
cytotoxic effects (PLC/PRF/5), isolated natural compounds [2]: exhibited cytotoxic effects

O=c1c2cccc(OCC3CO3)c2oc2cc(OCC3CO3)cc(O)c12 (stereo not shown) [Compound 21, 3,5-di(2,3-epoxypropoxy)-1-hydroxyxanthone]
dependence of inhibition of macromolecular biosynthesis on concentration and time (KB) [5]: only correlated with the concentration of drug treatment
effects on DNA, RNA and protein synthesis (KB) [5]: not apparent
IC50 ([3]; 96 h): 0.061 µg/mL (≈ 0.171 µM)
inhibitory activity in words (PLC/PRF/5) [3]: significant novel inhibitory activity
dependence of inhibition of macromolecular biosynthesis on concentration and time (PLC/PRF/5) (human PLC/PRF/5 cells): correlated with the concentration and the period of drug treatment
effects on DNA, RNA and protein synthesis (PLC/PRF/5) (human PLC/PRF/5 cells): effects are significant at low concentration
suppression of cellular DNA, RNA and protein synthesis (human PLC/PRF/5 cells): suppress cellular DNA, RNA and protein synthesis
IC50 (KB cells [4]; [6]): 0.089 µg/mL (≈ 0.25 µM)
inhibitory activity in words (KB) (KB cells [4]): significant novel inhibitory activity

O^5 -methyl-3',4'-deoxypsorospermin-3'-ol
cytotoxic effects against leukemia cells (leukemia cells): strong cytotoxic effects

COc1cc2c(cc1O)-c1oc3c4c(cc(O)c3c(=O)c1C(C=C(C)C)O2)OC(C)(C)C=C4 (stereo not shown) [cycloartomunin]
cytotoxic effects (KB), isolated natural compounds (KB cells [1]): exhibited cytotoxic effects
cytotoxic effects (PLC/PRF/5), isolated natural compounds [2]: exhibited cytotoxic effects

N.N.[Cl][Pt][Cl] [Cisplatin, reference compound]
ED50 (PLC/PRF/5) [3]: 5.29 µg/mL
ED50 (KB) (KB cells [4]; [6]): 0.16 µg/mL

artomunoxanth-otrione epoxide
cytotoxic effects (KB), isolated natural compounds (KB cells [1]): exhibited cytotoxic effects
cytotoxic effects (PLC/PRF/5), isolated natural compounds [2]: exhibited cytotoxic effects

O=c1c2ccccc2oc2cc(O)ccc12 [Compound 13, 3-hydroxyxanthone]
IC50 ([3]; PLC-PRF-5, 96 h): 3.73 µg/mL (≈ 17.6 µM)
ED50 (PLC/PRF/5) ([3]; 5760 min): 3.75 µg/mL (≈ 17.7 µM)
inhibitory activity in words (PLC/PRF/5) [3]: significant and potent inhibitory activity
IC50 (KB cells [4]; [6]): 0.77 µg/mL (≈ 3.63 µM)
inhibitory activity in words (KB) (KB cells [4]): significant and potent inhibitory activity

O=c1c2ccc(OCC3CO3)cc2oc2cc(OCC3CO3)ccc12 (stereo not shown) [Compound 17, 3,6-di(2,3-epoxypropxy)xanthone]
dependence of inhibition of macromolecular biosynthesis on concentration and time (KB) [5]: only correlated with the concentration of drug treatment
effects on DNA, RNA and protein synthesis (KB) [5]: not apparent
IC50 ([3]; 96 h): 0.24 µg/mL (≈ 0.705 µM)
dependence of inhibition of macromolecular biosynthesis on concentration and time (PLC/PRF/5) (human PLC/PRF/5 cells): correlated with the concentration and the period of drug treatment
effects on DNA, RNA and protein synthesis (PLC/PRF/5) (human PLC/PRF/5 cells): effects are significant at low concentration
suppression of cellular DNA, RNA and protein synthesis (human PLC/PRF/5 cells): suppress cellular DNA, RNA and protein synthesis
IC50 (KB cells [4]; [6]): 0.11 µg/mL (≈ 0.323 µM)
